{
  "source": "paper PMC9834611",
  "about": "(Pharmacology Research & Perspectives, 2023)",
  "key": {"ABCB1 [1]": {"system": "ABCB1", "test": "ABCB1 transport Vmax optimized to in vivo canine PK data", "conditions": "dog and human models", "text": "The transfer of drugs at the BBB is unique as the mass transfer out of the vascular space surrounding the brain tissue is hindered by a permeability barrier. […] Coupling the ABCB1 transport equations as expressed above with permeability‐limited modeling equations from Choi et al.,[23] the following equations are proposed where Equation ( 4 ) describes the amount of drug within the brain tissue and Equation ( 5 ) describes the amount of drug in the vascular space surrounding the tissue: (4) VCNS*dCCNS,T/dt=PSA×CA−CCNS,V−sfABCB1,CNS×VCNS×VMAXABCB1×CCNS,V/KMABCB1+CCNS,V (5) VBB*dCBB/dt=QCNS*CA−CV−PSA×CA−CV,CNA+sfCNS×VCNS×VMAXABCB1×CCNS,V/KMABCB1+CCNS,V where VCNS is the volume of the brain tissue, VBB is the volume consisting of brain blood, CCNS,T is the concentration of drug in the brain tissue, PSA is the permeability surface area product, sfABCB1,CNS is the relative ABCB1 expression in brain tissue, and CBB is the concentration of drug in the brain blood. VCNA and VBB were set to 97% and 3% of total brain volume, respectively.[37] […] The parameter optimization method was conducted as described previously with nonlinear least squares regression. […] The corresponding Vmax,ABCB1 value was optimized to in vivo canine PK data. […]"}, "[2]": {"test": "Mouse PBPK model simulations and model parameters", "text": "This model thus aims to elucidate the implications of drug pharmacokinetics and mechanisms of distribution, ultimately providing a modeling base for extrapolation of simulated concentration profiles to clinical settings. The primary drivers of vinca disposition are fraction unbound drug to plasma proteins, intercellular tubulin binding, metabolism, and ABCB1‐mediated transport. With exception to the brain, tissue compartments are defined by a well‐stirred, flow‐limited model in which the concentration of drug leaving the compartment is equal to the unbound drug concentration within the tissue. The blood–brain barrier (BBB) is distinctive as the tight junctions and prolific expression of efflux transporter proteins provide a highly restrictive barrier to many lipophilic molecules. The brain is thus defined by a permeability‐limited model dictated by a modification of Fick's Law of diffusion in which the permeability‐surface area product constitutes the tissue permeation coefficient, the capillary surface area permitting diffusion, and the thickness of the cellular membrane.[32] ABCB1 is highly expressed at the blood–brain barrier as well as in the liver, gut, and kidneys, facilitating drug excretion.[14], [15]\nPhysiological parameters for tissue‐specific percent body weight and cardiac output for mouse, canine, and human were sourced from Brown et al.[27] and presented in Table 1. All tissue densities were approximated to be 1 kg/L. Cardiac output for respected species was estimated using a previously derived allometric scaling relationship for unanesthetized mice.[33] […] The rate of change in the amount of drug within generic, non‐eliminating compartments is governed by the following mass balance equation: (1) dAC/dt=VC×dCC/dt=QC×CA−CVT where AC is the amount of drug in the tissue, VC is the volume of the tissue (assuming static volume), CC is the concentration within the tissue, QC is the tissue perfusion rate, CA is the arterial blood drug concentration, and CVT is the venous blood drug concentration.\nTissue‐specific‐binding capacities, BC , were obtained from studies where tubulin concentrations were determined from tubulin‐binding capacities for colchicine[12] and are reported in Table 2. […] Relative tissue tubulin‐binding capacities were thus assumed to be equivalent for the mouse, dog, and human PBPK model developed herein. […] Partition coefficients, PC , for respective tissues were determined by performing parameter optimization in MATLAB's tool, SimBiology, using a nonlinear least squares regression estimation method from the optimization toolbox. The statistical modeling method fit pooled Mdr1a/b (−/−) tissue data generating one set of partition parameters for all tissues which are reported in Table 1.\nThe transfer of drugs at the BBB is unique as the mass transfer out of the vascular space surrounding the brain tissue is hindered by a permeability barrier."}, "in vitro": {"test": "in vitro", "conditions": "female, CD-1, mouse, liver microsomes"}, "[3]": {"test": "Human PBPK model Monte Carlo simulation and model parameters"}, "serum proteins": {"system": "serum proteins", "conditions": "cited from earlier work"}, "[4]": {"system": "plasma proteins, primarily alpha‐1 acid glycoprotein", "conditions": "cited from earlier work"}, "[5]": {"test": "Canine PBPK model Monte Carlo simulation and model parameters", "conditions": "dog model"}, "human ABCB1": {"system": "human ABCB1", "design": "method as in PMID 17142983", "conditions": "dog and human models, cited from earlier work"}, "ABCB1 [6]": {"system": "ABCB1", "test": "ABCB1‐driven transport kinetics fit to wild‐type mouse brain tissue PK data", "text": "The rate of change in the amount of drug in tissues with ABCB1 expression is as follows: (3) dAT/dt=QC×CA−CVT−FABCB1,T×Vmax,ABCB1×Cv/Km+Cv In which ABCB1‐mediated efflux of drug is characterized by Michaelis–Menten saturable kinetics, where FABCB1,T is the scaling factor for the relative expression of ABCB1 transport protein in relevant tissues, Vmax,ABCB1 is the maximum velocity of ABCB1 transport out of the tissue compartment, and Km is the associated Michaelis–Menten constant. Scaling factors, FABCB1,T , were acquired from Systems Pharmacology for ABCB1 relative tissue expression as previously reported.[36]\nThe transfer of drugs at the BBB is unique as the mass transfer out of the vascular space surrounding the brain tissue is hindered by a permeability barrier. […] Coupling the ABCB1 transport equations as expressed above with permeability‐limited modeling equations from Choi et al.,[23] the following equations are proposed where Equation ( 4 ) describes the amount of drug within the brain tissue and Equation ( 5 ) describes the amount of drug in the vascular space surrounding the tissue: (4) VCNS*dCCNS,T/dt=PSA×CA−CCNS,V−sfABCB1,CNS×VCNS×VMAXABCB1×CCNS,V/KMABCB1+CCNS,V (5) VBB*dCBB/dt=QCNS*CA−CV−PSA×CA−CV,CNA+sfCNS×VCNS×VMAXABCB1×CCNS,V/KMABCB1+CCNS,V where VCNS is the volume of the brain tissue, VBB is the volume consisting of brain blood, CCNS,T is the concentration of drug in the brain tissue, PSA is the permeability surface area product, sfABCB1,CNS is the relative ABCB1 expression in brain tissue, and CBB is the concentration of drug in the brain blood. VCNA and VBB were set to 97% and 3% of total brain volume, respectively.[37] […] The parameter optimization method was conducted as described previously with nonlinear least squares regression. […] The corresponding Vmax,ABCB1 value was optimized to in vivo canine PK data. […] Canine model parameter values were thus fit to the patients without concurrent treatment of omeprazole to minimize the influence of potential drug–drug interactions."}, "dog liver microsomes": {"system": "dog liver microsomes", "conditions": "dog and human models, fit of digitized data, cited from earlier work"}, "[7]": {"conditions": "mouse model, optimized to mouse mdr1a/b (−/−) data"}, "[8]": {"conditions": "bone marrow, optimized to mouse mdr1a/b (−/−) data"}, "[9]": {"conditions": "optimized to mouse mdr1a/b (−/−) data"}},
  "note": "Read-outs that look alike come from different tables or passages of the source.",
  "data": [
    {"compound": "CC[C@]1(O)C[C@@H]2CN(CCc3c([nH]c4ccccc34)[C@@](C(=O)OC)(c3cc4c(cc3OC)N(C)[C@H]3[C@@](O)(C(=O)OC)[C@H](OC(C)=O)[C@]5(CC)C=CCN6CC[C@]43[C@@H]65)C2)C1", "note": "[VBL, Vinblastine]", "values": [
      {"measurement": "VmABCB1", "setting": "ABCB1 [1]; optimized to in vivo canine PK data", "result": 64.54, "unit": "nmol/L/h"},
      {"measurement": "Vmbil (biliary transport Vmax)", "setting": "ABCB1 [1]; set equivalent to ABCB1 value", "result": 64.54, "unit": "nmol/L/h"},
      {"measurement": "Vmbil (biliary transport Vmax)", "setting": "[2]; mdra1a/b (−/−) mouse, optimized to fecal data", "result": 23.35, "unit": "nmol/L/h"},
      {"measurement": "Partition coefficient PCblood", "setting": "[2]; mouse model", "result": 1.0},
      {"measurement": "Partition coefficient PCBM", "setting": "[2]; mouse model, bone marrow, optimized to mouse mdr1a/b (−/−) data", "result": 1.0},
      {"measurement": "Partition coefficient PCCNS", "setting": "[2]; [7]", "result": 1.21},
      {"measurement": "Partition coefficient PCGut", "setting": "[2]; [7]", "result": 1.08},
      {"measurement": "Partition coefficient PCKidney", "setting": "[2]; [7]", "result": 3.73},
      {"measurement": "Partition coefficient PCLiver", "setting": "[2]; [7]", "result": 2.26},
      {"measurement": "Km at 5 min", "setting": "in vitro", "result": 11.6, "unit": "µM"},
      {"measurement": "Partition coefficient PCblood", "setting": "[3]", "result": 1.0},
      {"measurement": "Partition coefficient PCBM", "setting": "[3]; [8]", "result": 1.0},
      {"measurement": "Partition coefficient PCCNS", "setting": "[3]; [9]", "result": 1.21},
      {"measurement": "Partition coefficient PCGut", "setting": "[3]; [9]", "result": 1.08},
      {"measurement": "Partition coefficient PCKidney", "setting": "[3]; [9]", "result": 3.73},
      {"measurement": "Partition coefficient PCLiver", "setting": "[3]; [9]", "result": 2.26},
      {"measurement": "bound to serum proteins", "setting": "serum proteins; dog plasma", "result": "≤ 75", "unit": "%"},
      {"measurement": "Protein binding (single value)", "setting": "serum proteins; value used in dog model", "result": 75, "unit": "%"},
      {"measurement": "Protein binding (single value)", "setting": "serum proteins; value used in human model", "result": 75, "unit": "%"},
      {"measurement": "Protein binding (single value)", "setting": "serum proteins; value used in mouse model", "result": 75, "unit": "%"},
      {"measurement": "percentage of drug bound to plasma proteins", "setting": "[4]", "result": "48–99%"},
      {"measurement": "Protein binding (range)", "setting": "[4]; value used in dog model", "result": "48–99%"},
      {"measurement": "Protein binding (range)", "setting": "[4]; value used in human model", "result": "48–99%"},
      {"measurement": "Protein binding (range)", "setting": "[4]; value used in mouse model", "result": "48–99%"},
      {"measurement": "Partition coefficient PCblood", "setting": "[5]", "result": 1.0},
      {"measurement": "Partition coefficient PCBM", "setting": "[5]; [8]", "result": 1.0},
      {"measurement": "Partition coefficient PCCNS", "setting": "[5]; [9]", "result": 1.21},
      {"measurement": "Partition coefficient PCGut", "setting": "[5]; [9]", "result": 1.08},
      {"measurement": "Partition coefficient PCKidney", "setting": "[5]; [9]", "result": 3.73},
      {"measurement": "Partition coefficient PCLiver", "setting": "[5]; [9]", "result": 2.26},
      {"measurement": "KmABCB1", "setting": "human ABCB1; based on ATPase activity", "result": 5760, "unit": "nmol/L"},
      {"measurement": "Km", "setting": "human ABCB1; set equivalent to ABCB1 value, read-out: Kmbil (biliary transport Km)", "result": 5.76, "unit": "µM"},
      {"measurement": "Vmbil (biliary transport Vmax)", "setting": "ABCB1 [6]; WT mouse, set equivalent to ABCB1 value", "result": 928.8, "unit": "nmol/L/h"},
      {"measurement": "Vmax, ABCB1‐driven transport", "setting": "ABCB1 [6]; fit to wild‐type mouse brain tissue PK data", "result": 928.8, "unit": "nM/h"},
      {"measurement": "KmABCB1", "setting": "ABCB1 [6]; mouse, optimized parameter", "result": 6.41, "unit": "nmol/L"},
      {"measurement": "VmABCB1", "setting": "ABCB1 [6]; mouse, optimized parameter", "result": 928.8, "unit": "nmol/L/h"},
      {"measurement": "Vmmet (metabolism Vmax)", "setting": "dog liver microsomes; extrapolated using 55 mg protein/g liver", "result": 189.6, "unit": "µmol/L/h"},
      {"measurement": "Km", "setting": "dog liver microsomes; read-out: Kmmet (metabolism Km)", "result": 9.53, "unit": "µM"}
    ]}
  ]
}
